Data published in BindingDB's records for doi:10.1124/jpet.104.081497 (Katholieke Universiteit Leuven, 2005).

Target: T1, Promotilin (Homo sapiens, UniProt P12872)
T1 sequence (P12872 whole entry): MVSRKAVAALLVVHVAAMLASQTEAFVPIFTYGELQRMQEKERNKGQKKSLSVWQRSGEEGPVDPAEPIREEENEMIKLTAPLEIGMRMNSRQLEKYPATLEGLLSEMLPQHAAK

Point of comparison: CC[C@H]1OC(=O)[C@H](C)[C@@H](O[C@H]2C[C@@](C)(OC)[C@@H](O)[C@H](C)O2)[C@H](C)[C@@H](O[C@@H]2O[C@H](C)C[C@H](N(C)C)[C@H]2O)[C@]2(C)CC(C)=C(O2)[C@H](C)[C@@H](O)[C@@H]1C [EM-B enolether], Ki 324 nM. Against it:
- CC[C@H]1OC(=O)[C@H](C)[C@@H](O[C@H]2C[C@@](C)(OC)C[C@H](C)O2)[C@H](C)[C@@H](O[C@@H]2O[C@H](C)C[C@H](N(C)CC)[C@H]2O)[C@@]2(C)CC(C)=C(O2)[C@H](C)[C@@H](O)[C@H]1C [ABT-229] — 5.5-fold lower, 58.9 nM
- CC[C@H]1OC(=O)[C@H](C)[C@@H](O[C@H]2C[C@@](C)(OC)[C@@H](O)[C@H](C)O2)[C@H](C)[C@@H](O[C@@H]2O[C@H](C)C[C@H](N(C)C)[C@H]2O)[C@](C)(O)C[C@@H](C)C(=O)[C@H](C)[C@@H](O)[C@]1(C)O [CAS_114-07-8] — 9.5-fold higher, 3090 nM
- CC[C@H](C)[C@H](NC(=O)[C@@H]1CCCN1C(=O)[C@@H](NC(=O)[C@@H](N)Cc1ccccc1)C(C)C)C(=O)N[C@@H](Cc1ccccc1)C(=O)N[C@H](C(=O)N[C@@H](Cc1ccc(O)cc1)C(=O)NCC(=O)N[C@@H](CCC(=O)O)C(=O)N[C@@H](CC(C)C)C(=O)N[C@@H](CCC(N)=O)C(=O)N[C@@H](CCCNC(=N)N)C(=O)N[C@@H](CCSC)C(=O)N[C@@H](CCC(N)=O)C(=O)N[C@@H](CCC(=O)O)C(=O)N[C@@H](CCCCN)C(=O)N[C@@H](CCC(=O)O)C(=O)N[C@@H](CCCNC(=N)N)C(=O)N[C@@H](CC(N)=O)C(=O)N[C@@H](CCCCN)C(=O)NCC(=O)N[C@@H](CCC(N)=O)C(=O)O)[C@@H](C)O [CAS_52906-92-0] — 110-fold lower, 2.82 nM
- CC[C@H]1OC(=O)[C@H](C)[C@@H](O[C@H]2C[C@@](C)(OC)[C@@H](O)[C@H](C)O2)[C@H](C)[C@@H](O[C@@H]2O[C@H](C)C[C@H](N(C)C)[C@H]2O)[C@@]2(C)CC(C)=C(O2)[C@H](C)[C@@H](O)[C@]1(C)O [Erythromycin-A enol ether] — within 1.5-fold, 257 nM
- C#CCN(C)C1CC(C)OC(OC2C(C)C(OC3CC(C)(OC)C(O)C(C)O3)C(C)C(=O)OC(CC)C(C)(O)C(O)C(C)C(=O)C(C)CC2(C)O)C1O (stereo unspecified) [ME36] — higher, > 10000 nM
